Data reported in ChEMBL document CHEMBL1201862, “PubChem BioAssay data set” (2004).
Activity calls are given as the source filed them.

Experiments:
[1] = molecular target: Induced myeloid leukemia cell differentiation protein Mcl-1 (Homo sapiens, UniProt Q07820); format: functional
[2] = molecular target: Cystic fibrosis transmembrane conductance regulator/Golgi-associated PDZ and coiled-coil motif-containing protein (Homo sapiens, UniProt P13569+Q9HD26); assay: potency against CAL PDZ-peptide interaction – biochemical, fluorescence polarization, Cerulean-tagged CAL PDZ, cherry-picks, dose response (AID 504773)
Chain of Cystic fibrosis transmembrane conductance regulator/Golgi-associated PDZ and coiled-coil motif-containing protein (P13569 whole entry, other chains not shown): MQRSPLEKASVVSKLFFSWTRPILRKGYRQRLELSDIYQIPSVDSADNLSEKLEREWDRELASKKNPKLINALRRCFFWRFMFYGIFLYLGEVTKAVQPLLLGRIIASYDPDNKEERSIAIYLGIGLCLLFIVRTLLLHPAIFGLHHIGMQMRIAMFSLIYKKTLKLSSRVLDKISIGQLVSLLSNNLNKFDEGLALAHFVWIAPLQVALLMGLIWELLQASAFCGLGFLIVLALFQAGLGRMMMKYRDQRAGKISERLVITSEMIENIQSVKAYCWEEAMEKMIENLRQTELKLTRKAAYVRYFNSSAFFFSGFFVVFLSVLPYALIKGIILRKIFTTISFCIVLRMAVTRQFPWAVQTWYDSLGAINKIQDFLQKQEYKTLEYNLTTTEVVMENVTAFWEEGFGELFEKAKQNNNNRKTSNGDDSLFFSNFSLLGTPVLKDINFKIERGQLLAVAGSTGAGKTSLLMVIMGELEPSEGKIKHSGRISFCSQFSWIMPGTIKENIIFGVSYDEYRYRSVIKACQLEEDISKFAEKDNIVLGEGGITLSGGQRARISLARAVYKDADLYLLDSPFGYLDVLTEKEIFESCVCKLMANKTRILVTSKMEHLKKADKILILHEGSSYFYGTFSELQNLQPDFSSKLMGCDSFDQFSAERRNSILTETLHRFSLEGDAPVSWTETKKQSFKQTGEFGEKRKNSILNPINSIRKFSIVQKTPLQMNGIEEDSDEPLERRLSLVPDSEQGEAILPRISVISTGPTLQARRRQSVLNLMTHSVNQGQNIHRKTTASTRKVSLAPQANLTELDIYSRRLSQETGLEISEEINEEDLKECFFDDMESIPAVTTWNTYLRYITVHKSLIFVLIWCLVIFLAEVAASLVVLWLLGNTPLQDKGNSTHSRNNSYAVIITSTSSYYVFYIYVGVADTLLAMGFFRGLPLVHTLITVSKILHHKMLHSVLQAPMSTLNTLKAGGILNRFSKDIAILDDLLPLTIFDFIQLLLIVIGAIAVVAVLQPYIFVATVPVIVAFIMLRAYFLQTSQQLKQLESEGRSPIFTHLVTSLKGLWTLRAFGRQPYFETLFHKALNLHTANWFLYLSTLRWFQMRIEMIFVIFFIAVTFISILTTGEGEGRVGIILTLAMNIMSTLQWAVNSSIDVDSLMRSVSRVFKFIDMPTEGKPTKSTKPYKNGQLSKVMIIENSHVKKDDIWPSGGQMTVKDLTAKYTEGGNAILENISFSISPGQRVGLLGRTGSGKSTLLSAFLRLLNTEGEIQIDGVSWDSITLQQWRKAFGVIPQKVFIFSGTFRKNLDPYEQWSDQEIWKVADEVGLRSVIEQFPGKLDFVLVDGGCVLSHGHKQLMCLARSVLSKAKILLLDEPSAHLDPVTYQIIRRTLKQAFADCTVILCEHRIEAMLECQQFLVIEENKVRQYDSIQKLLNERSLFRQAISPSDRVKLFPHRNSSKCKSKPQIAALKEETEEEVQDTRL

Caspase-6 = molecular target: T1, Caspase-6 (Homo sapiens, UniProt P55212); assay: inhibition of CASP6 peptide cleavage – biochemical, VEID-R110 fluorescence, cherry-pick, dose response (AID 720632)
T1 sequence (P55212 whole entry): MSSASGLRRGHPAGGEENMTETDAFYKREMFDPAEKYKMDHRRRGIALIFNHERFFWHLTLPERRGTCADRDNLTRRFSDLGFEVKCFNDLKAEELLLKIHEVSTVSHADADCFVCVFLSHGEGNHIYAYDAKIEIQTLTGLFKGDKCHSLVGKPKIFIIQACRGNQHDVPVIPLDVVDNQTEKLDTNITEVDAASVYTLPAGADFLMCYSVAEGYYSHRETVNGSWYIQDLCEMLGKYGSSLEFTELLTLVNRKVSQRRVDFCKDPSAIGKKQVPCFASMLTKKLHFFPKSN

Hexokinase-1 = molecular target: T2, Hexokinase-1 (Homo sapiens, UniProt P19367); assay: SAR analysis of small molecule inhibitors of hexokinase domain containing I (HKDC1) in the hexokinase 1 selectivity assay. [Related pubchem assays (depositor defined):AID493160, AID493190]; format: functional
T2 sequence (P19367 whole entry): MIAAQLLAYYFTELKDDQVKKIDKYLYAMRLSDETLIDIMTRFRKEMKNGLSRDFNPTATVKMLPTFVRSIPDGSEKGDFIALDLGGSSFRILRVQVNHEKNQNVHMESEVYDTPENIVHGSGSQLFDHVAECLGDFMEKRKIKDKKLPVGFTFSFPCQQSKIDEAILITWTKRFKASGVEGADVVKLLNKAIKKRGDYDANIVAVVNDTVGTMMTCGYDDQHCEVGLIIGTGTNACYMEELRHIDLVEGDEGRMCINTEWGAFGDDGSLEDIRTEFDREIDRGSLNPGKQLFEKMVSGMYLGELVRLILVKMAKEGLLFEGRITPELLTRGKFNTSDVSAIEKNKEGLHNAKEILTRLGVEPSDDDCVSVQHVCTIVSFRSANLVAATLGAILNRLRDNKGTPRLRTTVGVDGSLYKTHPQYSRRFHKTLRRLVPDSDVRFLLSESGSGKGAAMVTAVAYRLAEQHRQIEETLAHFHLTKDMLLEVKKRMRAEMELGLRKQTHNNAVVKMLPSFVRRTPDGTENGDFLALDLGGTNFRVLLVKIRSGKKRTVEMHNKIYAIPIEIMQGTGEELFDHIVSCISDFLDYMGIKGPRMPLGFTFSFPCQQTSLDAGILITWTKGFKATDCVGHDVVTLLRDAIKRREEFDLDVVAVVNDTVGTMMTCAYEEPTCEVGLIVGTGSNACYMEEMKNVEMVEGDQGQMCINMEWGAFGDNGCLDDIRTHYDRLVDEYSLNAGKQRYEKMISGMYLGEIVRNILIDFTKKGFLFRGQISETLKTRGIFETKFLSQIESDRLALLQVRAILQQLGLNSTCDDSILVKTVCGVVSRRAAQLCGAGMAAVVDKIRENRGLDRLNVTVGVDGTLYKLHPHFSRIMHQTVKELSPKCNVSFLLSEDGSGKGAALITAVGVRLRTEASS

Streptococcus = assay: GAS UMAA2166 growth inhibition – luminescence, BacTiterGlo, counter-screen for streptokinase expression inhibitor project, dose response (AID 1915); format: functional, organism-based;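 further: potency for reduction of bacterial viability or growth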
[3] = molecular target: T3, Apoptotic protease-activating factor 1 (Homo sapiens, UniProt O14727); format: functional
T3 sequence (O14727 whole entry): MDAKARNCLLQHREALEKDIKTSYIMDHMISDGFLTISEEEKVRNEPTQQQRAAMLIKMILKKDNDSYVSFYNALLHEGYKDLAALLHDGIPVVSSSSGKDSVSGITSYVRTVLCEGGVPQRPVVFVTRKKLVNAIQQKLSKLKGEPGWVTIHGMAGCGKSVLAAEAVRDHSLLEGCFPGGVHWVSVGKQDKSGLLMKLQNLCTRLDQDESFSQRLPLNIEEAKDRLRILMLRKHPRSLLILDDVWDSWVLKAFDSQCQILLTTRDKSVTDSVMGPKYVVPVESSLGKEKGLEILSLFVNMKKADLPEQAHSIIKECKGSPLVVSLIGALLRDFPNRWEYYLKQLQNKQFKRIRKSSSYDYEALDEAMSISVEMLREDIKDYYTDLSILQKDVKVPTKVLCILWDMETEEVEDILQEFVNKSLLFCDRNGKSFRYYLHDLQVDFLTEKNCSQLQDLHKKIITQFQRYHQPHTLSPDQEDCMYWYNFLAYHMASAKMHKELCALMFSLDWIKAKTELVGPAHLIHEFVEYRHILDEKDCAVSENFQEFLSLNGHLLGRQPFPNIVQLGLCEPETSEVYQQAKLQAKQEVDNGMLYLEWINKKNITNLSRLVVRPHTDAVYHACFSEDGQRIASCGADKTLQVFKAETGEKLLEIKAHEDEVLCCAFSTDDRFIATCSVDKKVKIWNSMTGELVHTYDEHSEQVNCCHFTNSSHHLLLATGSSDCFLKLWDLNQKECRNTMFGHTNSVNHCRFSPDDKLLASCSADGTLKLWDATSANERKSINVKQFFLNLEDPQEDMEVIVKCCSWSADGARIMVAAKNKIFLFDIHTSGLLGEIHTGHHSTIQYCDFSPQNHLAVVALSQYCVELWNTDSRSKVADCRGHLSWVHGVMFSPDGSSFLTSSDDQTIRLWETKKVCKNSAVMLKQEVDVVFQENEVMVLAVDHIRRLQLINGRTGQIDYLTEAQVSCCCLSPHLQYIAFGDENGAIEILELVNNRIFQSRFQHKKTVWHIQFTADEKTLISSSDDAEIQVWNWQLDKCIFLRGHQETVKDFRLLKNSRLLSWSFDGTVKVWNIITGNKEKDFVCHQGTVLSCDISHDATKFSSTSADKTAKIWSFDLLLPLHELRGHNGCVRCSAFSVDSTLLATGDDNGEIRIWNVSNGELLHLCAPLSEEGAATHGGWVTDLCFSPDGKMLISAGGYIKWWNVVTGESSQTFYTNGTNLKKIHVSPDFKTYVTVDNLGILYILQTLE

[4] = molecular target: Heat shock protein HSP 90-alpha (Homo sapiens, UniProt P07900); assay: Luminescence-based dose response biochemical high throughput screening assay for inhibitors of the Heat Shock Protein 90 (HSP90). [Related pubchem assays: 1831 (Summary AID.), 1846 (Confirmation screen.), 1789 (Primary screen.)]
Nonstructural protein 1 = Nonstructural protein 1 (Influenza A virus, UniProt Q194T2); format: functional, Influenza A virus (A/California/07/2009(H1N1))
Chain of Nonstructural protein 1 (Q194T2 whole entry): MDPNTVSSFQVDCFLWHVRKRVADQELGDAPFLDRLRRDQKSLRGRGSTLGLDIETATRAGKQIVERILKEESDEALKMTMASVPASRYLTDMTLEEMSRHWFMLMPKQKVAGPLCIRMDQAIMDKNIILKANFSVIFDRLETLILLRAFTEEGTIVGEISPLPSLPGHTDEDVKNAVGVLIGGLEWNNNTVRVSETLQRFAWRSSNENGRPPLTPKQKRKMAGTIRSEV

Chain of Induced myeloid leukemia cell differentiation protein Mcl-1 (Q07820 whole entry): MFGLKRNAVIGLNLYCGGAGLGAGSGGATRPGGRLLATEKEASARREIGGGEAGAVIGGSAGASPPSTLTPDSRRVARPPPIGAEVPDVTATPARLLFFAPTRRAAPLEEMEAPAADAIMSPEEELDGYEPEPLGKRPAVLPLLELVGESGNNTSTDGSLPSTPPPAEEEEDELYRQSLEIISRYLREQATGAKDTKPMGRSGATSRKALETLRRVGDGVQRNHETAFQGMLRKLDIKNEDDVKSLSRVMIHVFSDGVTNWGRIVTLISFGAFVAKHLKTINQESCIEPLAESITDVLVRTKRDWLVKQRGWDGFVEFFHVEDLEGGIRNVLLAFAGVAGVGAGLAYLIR

NC(=O)C1CCN(C2=C(Cl)C(=O)c3ccccc3C2=O)CC1
IC50 [1]: > 54 µM (not active)

O=c1c2ccccc2nc(/C=C/c2cccnc2)n1Cc1ccccc1
AC50 [2]: 23.5 µM (active)
AC50 (Caspase-6): 11.8 µM (active)
IC50 (Hexokinase-1): > 80 µM (inactive)

O=C(O)c1ccc(N/N=C/c2ccc(OC(=O)c3ccccc3Cl)cc2)cc1
EC50 (Streptococcus): 131 µM (active)

COC(=O)c1ccccc1NC1=C/C(=N\S(=O)(=O)c2ccc(C(=O)O)cc2)c2ccccc2C1=O
IC50 [3]: 7.19 µM (active)
IC50 [4]: 1.26 µM (active)
IC50 (Nonstructural protein 1): 31.8 µM (active)
